Patent US20250171420A1 (Monte Rosa Therapeutics, Inc., priority 2022, published 2025)

Biological target: T1, CK1α (Homo sapiens, UniProt P48729)
T1 construct: HEK293 clonal lines with CRISPR KI HiBiT tag on CSNK1A1
Assay: CK1α NanoBit Assay (HiBiT-tagged CSNK1A1, HEK293 clonal lines)
Assay type: cell-based
Conditions: HEK293 HiBiT-CSNK1A1/LgBiT cells, 24 h incubation
Method: HEK293 clonal lines with CRISPR KI HiBiT tag on CSNK1A1 and stably expressing LgBiT protein were obtained from Promega (Madison, WI). […] Cells were incubated at 37° C., 5% CO2 for 24 hours and then signal was read on a Pherastar FSX using “LUM plus” optic module.
Data analysis was performed in Scinamic (Scinamic, Cambridge, MA). Luminescence response (R) was calculated by the formula: response=100*(S−N)/(P−N) where S is the signal of the well, N and P the mean negative and positive control values respectively of the same plate.
DC50 data are reported in Table 2 for compounds in Table 1. In Table 2 below, According to the code, A represents a DC50 value of ≤0.1 μM, B represents a DC50 value>0.1 μM and ≤1 μM, C represents an DC50 value>1 μM.

T1 sequence (P48729 whole entry): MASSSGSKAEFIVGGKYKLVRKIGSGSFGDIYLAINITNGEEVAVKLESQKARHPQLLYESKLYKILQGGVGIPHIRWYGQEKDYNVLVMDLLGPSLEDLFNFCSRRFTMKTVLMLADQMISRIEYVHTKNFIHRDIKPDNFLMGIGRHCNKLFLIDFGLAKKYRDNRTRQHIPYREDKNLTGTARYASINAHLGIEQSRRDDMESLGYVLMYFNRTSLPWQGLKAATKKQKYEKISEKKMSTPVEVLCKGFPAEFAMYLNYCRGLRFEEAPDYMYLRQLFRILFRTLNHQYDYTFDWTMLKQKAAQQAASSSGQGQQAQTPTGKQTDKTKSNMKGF
T1 sequence (Q96SW2 whole entry, further chain): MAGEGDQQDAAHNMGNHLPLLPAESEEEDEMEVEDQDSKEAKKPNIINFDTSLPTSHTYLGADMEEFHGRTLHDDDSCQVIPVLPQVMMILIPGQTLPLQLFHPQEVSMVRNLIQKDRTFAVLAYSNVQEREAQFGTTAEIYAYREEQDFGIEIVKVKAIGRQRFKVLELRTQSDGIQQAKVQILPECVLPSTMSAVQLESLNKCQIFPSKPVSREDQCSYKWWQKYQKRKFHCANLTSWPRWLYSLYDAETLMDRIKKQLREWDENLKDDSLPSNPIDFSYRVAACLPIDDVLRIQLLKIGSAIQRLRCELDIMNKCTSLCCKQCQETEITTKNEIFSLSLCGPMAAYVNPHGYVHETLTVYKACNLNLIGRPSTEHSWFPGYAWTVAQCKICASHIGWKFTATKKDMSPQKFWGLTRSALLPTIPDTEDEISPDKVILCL
T1 sequence (Q16531 2-1140 partner limits assumed): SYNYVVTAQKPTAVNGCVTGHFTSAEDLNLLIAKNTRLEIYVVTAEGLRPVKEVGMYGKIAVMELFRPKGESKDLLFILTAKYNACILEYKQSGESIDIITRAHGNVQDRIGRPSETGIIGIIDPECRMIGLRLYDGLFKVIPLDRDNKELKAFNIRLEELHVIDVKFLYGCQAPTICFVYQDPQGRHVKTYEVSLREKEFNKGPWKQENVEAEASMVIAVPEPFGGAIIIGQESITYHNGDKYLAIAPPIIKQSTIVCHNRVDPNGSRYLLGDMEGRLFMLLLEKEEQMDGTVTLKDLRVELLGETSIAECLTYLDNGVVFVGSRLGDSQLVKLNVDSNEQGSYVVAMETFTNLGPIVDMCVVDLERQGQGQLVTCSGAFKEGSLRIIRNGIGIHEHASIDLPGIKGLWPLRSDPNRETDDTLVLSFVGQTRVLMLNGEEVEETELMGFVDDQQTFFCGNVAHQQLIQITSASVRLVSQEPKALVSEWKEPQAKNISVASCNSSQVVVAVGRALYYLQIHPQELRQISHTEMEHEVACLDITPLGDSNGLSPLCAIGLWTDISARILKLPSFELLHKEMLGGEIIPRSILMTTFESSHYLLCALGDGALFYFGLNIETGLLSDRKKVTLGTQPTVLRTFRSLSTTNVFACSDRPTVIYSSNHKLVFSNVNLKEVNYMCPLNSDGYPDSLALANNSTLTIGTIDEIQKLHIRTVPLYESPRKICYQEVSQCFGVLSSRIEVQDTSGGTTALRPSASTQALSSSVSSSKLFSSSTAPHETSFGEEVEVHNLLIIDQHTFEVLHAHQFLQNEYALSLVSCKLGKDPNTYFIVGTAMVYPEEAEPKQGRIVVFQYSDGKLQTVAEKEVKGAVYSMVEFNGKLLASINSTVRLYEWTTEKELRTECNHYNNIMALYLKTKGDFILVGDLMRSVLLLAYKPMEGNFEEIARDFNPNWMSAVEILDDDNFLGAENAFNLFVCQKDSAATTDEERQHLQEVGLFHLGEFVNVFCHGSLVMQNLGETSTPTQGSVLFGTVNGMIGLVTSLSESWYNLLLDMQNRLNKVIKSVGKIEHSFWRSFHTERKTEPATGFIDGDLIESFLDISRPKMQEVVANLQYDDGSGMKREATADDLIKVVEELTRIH

Structure (SMILES)	DC50
O=C1CCC(N2Cc3cc(NC(=O)N4CC(c5ccccc5)C4)ccc3C2=O)C(=O)N1 (stereo not shown) [Compound 111, N-(2-(2,6-dioxopiperidin-3-yl)-1-oxoisoindolin-5-yl)-3-phenylazetidine-1-carboxamide]	0.1 to 1 µM
CNC(=O)[C@@H]1Cc2ccccc2N1C(=O)Nc1ccc2c(c1)CN(C1CCC(=O)NC1=O)C2=O (stereo partly drawn) [Compound 326, (2S)—N^1-(2-(2,6-dioxopiperidin-3-yl)-1-oxoisoindolin-5-yl)-N^2-methylindoline-1,2-dicarboxamide]	0.1 to 1 µM
CC1c2ccccc2N(C(=O)Nc2ccc3c(c2)CN(C2CCC(=O)NC2=O)C3=O)C1C (stereo not shown) [Compound 123, N-(2-(2,6-dioxopiperidin-3-yl)-1-oxoisoindolin-5-yl)-2,3-dimethylindoline-1-carboxamide]	< 0.1 µM
CN1CCN(c2ccc3c(c2)CCN3C(=O)Nc2ccc3c(c2)CN(C2CCC(=O)NC2=O)C3=O)CC1 (stereo not shown) [Compound 351, N-(2-(2,6-dioxopiperidin-3-yl)-1-oxoisoindolin-5-yl)-5-(4-methylpiperazin-1-yl)indoline-1-carboxamide]	0.1 to 1 µM
CC1(C)Cc2ccccc2N1C(=O)Nc1ccc2c(c1)CN(C1CCC(=O)NC1=O)C2=O (stereo not shown) [Compound 132]	< 0.1 µM
O=C1CCC(N2Cc3cc(NC(=O)N4c5ccccc5C[C@H]4COC(F)F)ccc3C2=O)C(=O)N1 (stereo partly drawn) [Compound 309, (2S)-2-((difluoromethoxy)methyl)-N-(2-(2,6-dioxopiperidin-3-yl)-1-oxoisoindolin-5-yl)indoline-1-carboxamide]	< 0.1 µM
Cn1ccc(C2CCCN(C(=O)Nc3ccc4c(c3)CN(C3CCC(=O)NC3=O)C4=O)C2)n1 (stereo not shown) [Compound 267]	0.1 to 1 µM
O=C1CCC(N2Cc3cc(NC(=O)N4Cc5ccccc5CC4c4ccccc4)ccc3C2=O)C(=O)N1 (stereo not shown) [Compound 215]	< 0.1 µM
O=C1CCC(N2Cc3cc(NC(=O)N4c5ccccc5C[C@@H]4CO)ccc3C2=O)C(=O)N1 (stereo partly shown) [Compound 125]	< 0.1 µM
Cc1cc2c(cn1)CCN2C(=O)Nc1ccc2c(c1)CN(C1CCC(=O)NC1=O)C2=O (stereo not shown) [Compound 113]	> 1 µM
O=C1CCC(N2Cc3cc(NC(=O)N4CCCc5ccc(C(F)(F)F)cc54)ccc3C2=O)C(=O)N1 (stereo not shown) [Compound 114]	< 0.1 µM
O=C1CCC(N2Cc3cc(NC(=O)N4CCCCC4C4CC4)ccc3C2=O)C(=O)N1 (stereo not shown) [Compound 232]	0.1 to 1 µM
C[C@@H]1[C@H]2CN(C(=O)Nc3ccc4c(c3)CN(C3CCC(=O)NC3=O)C4=O)C[C@@H]12 (stereo partly shown) [Compound 273]	< 0.1 µM
O=C1CCC(N2Cc3cc(NC(=O)N4CCCc5c(F)cccc54)ccc3C2=O)C(=O)N1 (stereo not shown) [Compound 131]	0.1 to 1 µM
Cc1cc(C)c2c(n1)CN(C(=O)Nc1ccc3c(c1)CN(C1CCC(=O)NC1=O)C3=O)C2 (stereo not shown) [Compound 118]	< 0.1 µM
O=C1CCC(N2Cc3cc(NC(=O)N4C[C@@H]5C[C@]5(C(F)F)C4)ccc3C2=O)C(=O)N1 (stereo partly shown) [Compound 240]	0.1 to 1 µM
Cc1ccc(C2CN(C(=O)Nc3ccc4c(c3)CN(C3CCC(=O)NC3=O)C4=O)C2)cc1 (stereo not shown) [Compound 228]	< 0.1 µM
Cc1ccccc1C1CN(C(=O)Nc2ccc3c(c2)CN(C2CCC(=O)NC2=O)C3=O)C1 (stereo not shown) [Compound 227]	< 0.1 µM
Cn1cc(N2CCN(C(=O)Nc3ccc4c(c3)CN(C3CCC(=O)NC3=O)C4=O)CC2)cn1 (stereo not shown) [Compound 243]	> 1 µM
O=C1CCC(N2Cc3cc(NC(=O)N4CCCCC4c4ccccc4)ccc3C2=O)C(=O)N1 (stereo not shown) [Compound 253]	< 0.1 µM

Structure (SMILES)	DC50
O=C1CCC(N2Cc3cc(NC(=O)N4CCN(c5ccccn5)CC4)ccc3C2=O)C(=O)N1 (stereo not shown) [Compound 271]	0.1 to 1 µM
COc1ccc2c(c1)CN(C(=O)Nc1ccc3c(c1)CN(C1CCC(=O)NC1=O)C3=O)C2 (stereo not shown) [Compound 199]	< 0.1 µM
O=C1CCC(N2Cc3cc(NC(=O)N4CCc5ccc(-c6ccccc6)cc5C4)ccc3C2=O)C(=O)N1 (stereo not shown) [Compound 183]	< 0.1 µM
O=C1CCC(N2Cc3cc(NC(=O)N4Cc5cccc(Cl)c5C4)ccc3C2=O)C(=O)N1 (stereo not shown) [Compound 182]	< 0.1 µM
O=C1CCC(N2Cc3cc(NC(=O)N4CCC(c5nccs5)C4)ccc3C2=O)C(=O)N1 (stereo not shown) [Compound 247]	0.1 to 1 µM
O=C1CCC(N2Cc3cc(NC(=O)N4CCC(c5ccccn5)C4)ccc3C2=O)C(=O)N1 (stereo not shown) [Compound 263]	0.1 to 1 µM
O=C1CCC(N2Cc3cc(NC(=O)N4Cc5cccnc5C4)ccc3C2=O)C(=O)N1 (stereo not shown) [Compound 121]	0.1 to 1 µM
CC1(C)CCN(C(=O)Nc2ccc3c(c2)CN(C2CCC(=O)NC2=O)C3=O)c2ccccc21 (stereo not shown) [Compound 143]	< 0.1 µM
Cc1ccc2c(c1)N(C(=O)Nc1ccc3c(c1)CN(C1CCC(=O)NC1=O)C3=O)CCC2 (stereo not shown) [Compound 149]	0.1 to 1 µM
CC(C)(C)c1ccc2c(c1)CCN(C(=O)Nc1ccc3c(c1)CN(C1CCC(=O)NC1=O)C3=O)C2 (stereo not shown) [Compound 194]	< 0.1 µM
O=C1CCC(N2Cc3cc(NC(=O)N4CCN(c5cccnc5)CC4)ccc3C2=O)C(=O)N1 (stereo not shown) [Compound 249]	> 1 µM
Cc1cccc(C2(O)CN(C(=O)Nc3ccc4c(c3)CN(C3CCC(=O)NC3=O)C4=O)C2)c1 (stereo not shown) [Compound 225]	> 1 µM
Cc1ccc2c(c1)CN(C(=O)Nc1ccc3c(c1)CN(C1CCC(=O)NC1=O)C3=O)C2 (stereo not shown) [Compound 175]	< 0.1 µM
CC1CN(C(=O)Nc2ccc3c(c2)CN(C2CCC(=O)NC2=O)C3=O)c2ccccc21 (stereo not shown) [Compound 119]	< 0.1 µM
Cc1cccc2c1CCCN2C(=O)Nc1ccc2c(c1)CN(C1CCC(=O)NC1=O)C2=O (stereo not shown) [Compound 122]	0.1 to 1 µM
Cc1ccnc(C2CCN(C(=O)Nc3ccc4c(c3)CN(C3CCC(=O)NC3=O)C4=O)CC2)n1 (stereo not shown) [Compound 246]	> 1 µM
CC(C)(C)c1ccc2c(c1)CN(C(=O)Nc1ccc3c(c1)CN(C1CCC(=O)NC1=O)C3=O)CC2 (stereo not shown) [Compound 179]	< 0.1 µM
O=C1CCC(N2Cc3cc(NC(=O)N4CCc5cccnc5C4)ccc3C2=O)C(=O)N1 (stereo not shown) [Compound 195]	0.1 to 1 µM
C[C@H]1c2ccccc2[C@H](C)N1C(=O)Nc1ccc2c(c1)CN(C1CCC(=O)NC1=O)C2=O (stereo partly shown) [Compound 172]	< 0.1 µM
O=C1CCC(N2Cc3cc(NC(=O)N4CCN(c5nccs5)CC4)ccc3C2=O)C(=O)N1 (stereo not shown) [Compound 242]	> 1 µM

Biological target: CRBN/DDB1 (Homo sapiens, UniProt Q96SW2)
Sequence (Q96SW2 whole entry, species assumed): as the sequence (Q96SW2 whole entry, further chain) above
Sequence (Q16531 whole entry partner, species assumed): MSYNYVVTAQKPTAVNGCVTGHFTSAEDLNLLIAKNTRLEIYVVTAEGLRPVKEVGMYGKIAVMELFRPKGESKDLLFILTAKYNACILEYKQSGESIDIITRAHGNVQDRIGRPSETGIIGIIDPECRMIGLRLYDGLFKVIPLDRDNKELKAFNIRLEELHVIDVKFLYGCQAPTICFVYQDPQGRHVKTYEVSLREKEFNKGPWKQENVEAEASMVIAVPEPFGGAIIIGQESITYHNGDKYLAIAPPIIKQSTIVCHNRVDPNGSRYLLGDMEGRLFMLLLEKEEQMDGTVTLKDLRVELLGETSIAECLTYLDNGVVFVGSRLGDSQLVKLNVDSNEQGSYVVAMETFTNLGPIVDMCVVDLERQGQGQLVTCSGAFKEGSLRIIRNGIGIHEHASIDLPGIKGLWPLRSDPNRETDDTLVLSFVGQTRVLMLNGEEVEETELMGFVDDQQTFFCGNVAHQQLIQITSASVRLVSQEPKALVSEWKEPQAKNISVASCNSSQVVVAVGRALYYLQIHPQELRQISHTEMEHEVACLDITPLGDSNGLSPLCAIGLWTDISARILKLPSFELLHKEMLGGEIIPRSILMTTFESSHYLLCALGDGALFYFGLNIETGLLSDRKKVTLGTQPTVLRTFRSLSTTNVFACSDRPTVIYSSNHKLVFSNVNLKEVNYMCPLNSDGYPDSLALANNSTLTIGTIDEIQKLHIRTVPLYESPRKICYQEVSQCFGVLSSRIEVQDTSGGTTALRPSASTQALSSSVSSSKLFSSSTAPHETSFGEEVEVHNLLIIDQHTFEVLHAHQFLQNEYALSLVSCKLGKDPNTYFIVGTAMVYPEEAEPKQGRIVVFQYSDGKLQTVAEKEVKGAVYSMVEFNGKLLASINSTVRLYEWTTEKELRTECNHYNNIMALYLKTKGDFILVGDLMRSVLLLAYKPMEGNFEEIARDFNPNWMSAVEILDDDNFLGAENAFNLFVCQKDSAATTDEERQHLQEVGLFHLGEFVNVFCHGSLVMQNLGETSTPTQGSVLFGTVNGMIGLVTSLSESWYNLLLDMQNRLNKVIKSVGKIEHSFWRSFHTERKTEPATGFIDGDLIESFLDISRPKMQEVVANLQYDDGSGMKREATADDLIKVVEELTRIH
Assay: HTRF binding assay (displacement of Cy5-thalidomide probe from CRBN/DDB1)
Conditions: CRBN/DDB1 2.5 nM, Cy5-Thalidomide 100 nM, 30 min; geometric mean; read-out: HTRF_Thali_Disp_DR_geo_IC50
Text: Binding of test compounds to CRBN/DDB1 was monitored in an HTRF assay using 1-[5-({2-[2-(2-{[2-(2,6-dioxopiperidin-3-yl)-1,3-dioxo-2,3-dihydro-1H-isoindol-4-yl]oxy}acetamido)ethoxy]ethyl}carbamoyl)pentyl]-3,3-dimethyl-2-[(1E,3E)-5-[(2E)-1,3,3-trimethyl-5-sulfo-2,3-dihydro-1H-indol-2-ylidene]penta-1,3-dien-1-yl]-3H-indol-1-ium-5-sulfonate as a fluorescent probe. In this assay, compounds displace the fluorescently labeled thalidomide-based probe bound to CRBN and fluorescence is monitored with increasing compound concentration. Assays were conducted in Greiner white 384 well HiBase plates (Cat. No 784075-25) in 10 μL total volume. A one pot detection solution of CRBN/DDB1 (2.5 nM), anti-His Terbium Cryptate Gold (1×, PerkinElmer Cat. #: 61HI2TLB), and Cy5-Thalidomide (100 nM, Tenova Cat.: T52461) was prepared in 20 mM HEPES, 20 mM NaCl, 0.2 mM TCEP, 0.2 mM EDTA, and 0.005% Tween20 was dispensed to each assay plate. Test compounds were stored in dry, ambient temperatures at 10 mM. A 10-point, 1:3 dilution series was prepared from 10 mM stock concentrations in Echo-compatible LDV plates. 10 nL of each compound dilution series was dispensed into assays wells using an Echo 650 (Labcyte inc. USA). 10 nL of 10 mM lenalidomide (Selleckchem Cat no. S1029) was transferred into the active-control wells for the assay and 10 nL of DMSO was transferred into the negative control wells. The assay was then allowed to incubate for 30 min at ambient temperature after transferring the test compounds. Plate measurements were taken on a Pherastar FSX (BMG Labtech, Germany) using the HTRF Red filter (Ex. 337 nm, em1: 620 nm, em2: 665 nm) (Flashes: 50, Integration time: 60-400 μs, Z-height: 10 mm, Ratio-multiplier: 10,000). Analysis, HTRF ratio and IC50 values were derived using KNIME analytics (KNIME Zurich) transformation and fitting within Collaborative Drug Discovery (Collaborative Drug Discovery USA) using a 4-parameter logistic fit. HTRF ratio calculation was performed using the following formula: […]
where Y represents the HTRF ratio response (as defined previously), X the compound concentration in μM, Ymin the minimum response plateau, Ymax the maximum response plateau, IC50 the concentration of agonist that gives a response half way between Ymin and Ymax and HillSlope the steepness of the family of curves. No fitting model constraints was applied on Ymin, or Ymax whilst IC50>0 and −0.5>HillSlope>−3
Ki values were derived from the geometric mean of the IC50 values using the Cheng-Prusoff transformation:
where [L] represents the concentration of fluorescent probe in μM, Kd the affinity (binding constant) of the fluorescent probe in units of μM and IC50 the concentration of agonist that gives a response halfway between Ymin and Ymax (as described in 1.2.1)
Analysis and IC50 values were derived using KNIME analytics (KNIME, Zurich) transformation and fitting within Collaborative Drug Discovery (Collaborative Drug Discovery, USA) as described in 1.2.1. Ki values were derived from the geometric mean of the IC50 values using the Cheng-Prusoff transformation as described in 2.2.2. Data was visualized in GraphPad Prism 8.1.2 (GraphPad, USA) and reported as mean and standard deviation. Microsoft Office Excel 2012 (Redmond, WA) was used for calculation of mean and standard deviation.
IC50 data are reported in Table 3 for compounds in Table 1. In Table 3 below, According to the code, A represents a IC50 value of ≤0.1 μM, B represents a IC50 value>0.1 μM and ≤1 μM, C represents an IC50 value>1 μM.

Structure (SMILES)	IC50
O=C1CCC(N2Cc3cc(NC(=O)N4CC(c5ccccc5)C4)ccc3C2=O)C(=O)N1 (stereo not shown) [Compound 111, N-(2-(2,6-dioxopiperidin-3-yl)-1-oxoisoindolin-5-yl)-3-phenylazetidine-1-carboxamide]	100 to 1000 nM
CNC(=O)[C@@H]1Cc2ccccc2N1C(=O)Nc1ccc2c(c1)CN(C1CCC(=O)NC1=O)C2=O (stereo partly drawn) [Compound 326, (2S)—N^1-(2-(2,6-dioxopiperidin-3-yl)-1-oxoisoindolin-5-yl)-N^2-methylindoline-1,2-dicarboxamide]	100 to 1000 nM
CC1c2ccccc2N(C(=O)Nc2ccc3c(c2)CN(C2CCC(=O)NC2=O)C3=O)C1C (stereo not shown) [Compound 123, N-(2-(2,6-dioxopiperidin-3-yl)-1-oxoisoindolin-5-yl)-2,3-dimethylindoline-1-carboxamide]	100 to 1000 nM
CN1CCN(c2ccc3c(c2)CCN3C(=O)Nc2ccc3c(c2)CN(C2CCC(=O)NC2=O)C3=O)CC1 (stereo not shown) [Compound 351, N-(2-(2,6-dioxopiperidin-3-yl)-1-oxoisoindolin-5-yl)-5-(4-methylpiperazin-1-yl)indoline-1-carboxamide]	100 to 1000 nM
CC1(C)Cc2ccccc2N1C(=O)Nc1ccc2c(c1)CN(C1CCC(=O)NC1=O)C2=O (stereo not shown) [Compound 132]	100 to 1000 nM
O=C1CCC(N2Cc3cc(NC(=O)N4c5ccccc5C[C@H]4COC(F)F)ccc3C2=O)C(=O)N1 (stereo partly drawn) [Compound 309, (2S)-2-((difluoromethoxy)methyl)-N-(2-(2,6-dioxopiperidin-3-yl)-1-oxoisoindolin-5-yl)indoline-1-carboxamide]	100 to 1000 nM
